Assay in all cases: relative viability (nuclei count vs DMSO), 5 days (fraction); higher = more cells survive
Compound in the assay “Motesanib + Palbociclib”: CC1(C)CNc2cc(NC(=O)c3cccnc3NCc3ccncc3)ccc21 [Motesanib] + CC(=O)c1c(C)c2cnc(Nc3ccc(N4CCNCC4)cn3)nc2n(C2CCCC2)c1=O [Palbociclib] (partner 0.5 µM)
The procedure, abridged: (§1)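 Relative viability was taken as the ratio of nuclei in treated wells to nuclei in vehicle wells. Lung cancer cell lines in 1536-well plates received compounds by pin tool one day after seeding, either one drug alone or a fixed anchor-drug dose plus five library-drug doses (not always all listed) in √10 steps. Nuclei were counted on 4× images after 5 days of treatment, and values are medians of duplicate plates.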

Compound in assay [1]: C[C@@]1(C(=O)Nc2ccc(F)nc2)CCCN1c1nc(Nc2cc(C3CC3)n[nH]2)c2cccn2n1 + CC(=O)c1c(C)c2cnc(Nc3ccc(N4CCNCC4)cn3)nc2n(C2CCCC2)c1=O [Palbociclib] (partner 0.5 µM)
In short, it runs like this:
as §1

Compound in assay [2]: C[C@@]1(C(=O)Nc2ccc(F)nc2)CCCN1c1nc(Nc2cc(C3CC3)n[nH]2)c2cccn2n1 + CS(=O)(=O)N1CCN(Cc2cc3nc(-c4cccc5[nH]ncc45)nc(N4CCOCC4)c3s2)CC1 [Pictilisib] (partner 1 µM)
The procedure, abridged:
as §1

Compound in assay [3]: C[C@@]1(C(=O)Nc2ccc(F)nc2)CCCN1c1nc(Nc2cc(C3CC3)n[nH]2)c2cccn2n1 + O=C(c1cc(Cc2n[nH]c(=O)c3ccccc23)ccc1F)N1CCN(C(=O)C2CC2)CC1 [Olaparib] (partner 8 µM)
In short, it runs like this: as §1

As to 201T, the relative viability in the assay with Motesanib + Palbociclib (first compound 0.01 µM) worked out at 0.34; with Motesanib + Palbociclib (first compound 0.03162 µM), 0.343; in the assay with Motesanib + Palbociclib (first compound 0.1 µM), 0.358; with Motesanib + Palbociclib (first compound 0.3162 µM), 0.371; in the assay with Motesanib + Palbociclib (first compound 1 µM) it was 0.373; in assay [1] (first compound 0.04 µM), 0.317. In addition, the relative viability stood at 0.264 in assay [1] (first compound 0.1265 µM); 0.311 in assay [1] (first compound 0.4 µM); 0.365 in assay [1] (first compound 1.265 µM); 0.638 in assay [2] (first compound 0.04 µM); 0.622 in assay [2] (first compound 0.1265 µM); 0.554 in assay [2] (first compound 0.4 µM). In addition, the relative viability was 0.614 in assay [2] (first compound 1.265 µM); 0.755 in assay [3] (first compound 0.04 µM); 0.725 in assay [3] (first compound 0.1265 µM); 0.729 in assay [3] (first compound 0.4 µM); 0.9 in assay [3] (first compound 1.265 µM).

For the cell line A549, the relative viability in assay [2] (first compound 0.04 µM) was 0.283; in assay [2] (first compound 0.1265 µM), 0.292; in assay [2] (first compound 0.4 µM) it was 0.172; in assay [2] (first compound 1.265 µM), 0.148; in assay [3] (first compound 0.04 µM), 0.293; in assay [3] (first compound 0.1265 µM), 0.17. The relative viability in assay [3] (first compound 0.4 µM) stood at 0.148; in assay [3] (first compound 1.265 µM), 0.244.

As to A-427, the relative viability was 0.527 with Motesanib + Palbociclib (first compound 0.01 µM); 0.506 in the assay with Motesanib + Palbociclib (first compound 0.03162 µM); 0.512 with Motesanib + Palbociclib (first compound 0.1 µM); 0.526 with Motesanib + Palbociclib (first compound 0.3162 µM); 0.549 with Motesanib + Palbociclib (first compound 1 µM); 0.497 in assay [1] (first compound 0.04 µM). Further, the relative viability in assay [1] (first compound 0.1265 µM) came out at 0.459; in assay [1] (first compound 0.4 µM), 0.459; in assay [1] (first compound 1.265 µM), 0.472; in assay [2] (first compound 0.04 µM) it was 0.79; in assay [2] (first compound 0.1265 µM) it was 0.679; in assay [2] (first compound 0.4 µM) it was 0.739. For the same cell line, the relative viability in assay [2] (first compound 1.265 µM) is 0.705; in assay [3] (first compound 0.04 µM) it was 0.666; in assay [3] (first compound 0.1265 µM) it was 0.663; in assay [3] (first compound 0.4 µM), 0.603; in assay [3] (first compound 1.265 µM) it was 0.529.

ABC-1: the relative viability with Motesanib + Palbociclib (first compound 0.01 µM) was 0.633; in the assay with Motesanib + Palbociclib (first compound 0.03162 µM), 0.541; in the assay with Motesanib + Palbociclib (first compound 0.1 µM), 0.7; with Motesanib + Palbociclib (first compound 0.3162 µM), 0.938; with Motesanib + Palbociclib (first compound 1 µM), 0.763; in assay [1] (first compound 0.04 µM) it was 0.647. The relative viability in assay [1] (first compound 0.1265 µM) stood at 0.42; in assay [1] (first compound 0.4 µM), 0.437; in assay [1] (first compound 1.265 µM), 0.477; in assay [2] (first compound 0.04 µM) it was 0.598; in assay [2] (first compound 0.1265 µM), 0.6; in assay [2] (first compound 0.4 µM), 0.467. Besides, the relative viability in assay [2] (first compound 1.265 µM) amounted to 0.394; in assay [3] (first compound 0.04 µM), 0.664; in assay [3] (first compound 0.1265 µM) it was 0.584; in assay [3] (first compound 0.4 µM), 0.774; in assay [3] (first compound 1.265 µM) it was 0.668.

On to BEN, for which the relative viability with Motesanib + Palbociclib (first compound 0.01 µM) was 0.458; with Motesanib + Palbociclib (first compound 0.03162 µM), 0.457; with Motesanib + Palbociclib (first compound 0.1 µM), 0.478; in the assay with Motesanib + Palbociclib (first compound 0.3162 µM), 0.481; in the assay with Motesanib + Palbociclib (first compound 1 µM), 0.476; in assay [1] (first compound 0.04 µM), 0.445. The relative viability is 0.484 in assay [1] (first compound 0.1265 µM); 0.472 in assay [1] (first compound 0.4 µM); 0.427 in assay [1] (first compound 1.265 µM); 0.614 in assay [2] (first compound 0.04 µM); 0.573 in assay [2] (first compound 0.1265 µM); 0.606 in assay [2] (first compound 0.4 µM). In addition, the relative viability in assay [2] (first compound 1.265 µM) stood at 0.614; in assay [3] (first compound 0.04 µM), 1.09; in assay [3] (first compound 0.1265 µM), 1.14; in assay [3] (first compound 0.4 µM), 0.97; in assay [3] (first compound 1.265 µM), 0.988.

As to CAL-12T, the relative viability with Motesanib + Palbociclib (first compound 0.01 µM) turned out to be 0.418; in the assay with Motesanib + Palbociclib (first compound 0.03162 µM), 0.524; with Motesanib + Palbociclib (first compound 0.1 µM) it was 0.347; with Motesanib + Palbociclib (first compound 0.3162 µM), 0.415; in the assay with Motesanib + Palbociclib (first compound 1 µM), 0.563; in assay [1] (first compound 0.04 µM), 0.407. Also, the relative viability came out at 0.407 in assay [1] (first compound 0.1265 µM); 0.358 in assay [1] (first compound 0.4 µM); 0.164 in assay [1] (first compound 1.265 µM); 0.41 in assay [2] (first compound 0.04 µM); 0.395 in assay [2] (first compound 0.1265 µM); 0.463 in assay [2] (first compound 0.4 µM). For the same cell line, the relative viability in assay [2] (first compound 1.265 µM) was found to be 0.304; in assay [3] (first compound 0.04 µM), 0.729; in assay [3] (first compound 0.1265 µM), 0.751; in assay [3] (first compound 0.4 µM), 0.583; in assay [3] (first compound 1.265 µM), 0.449.

COR-L23: the relative viability is 0.297 with Motesanib + Palbociclib (first compound 0.01 µM); 0.26 with Motesanib + Palbociclib (first compound 0.03162 µM); 0.272 with Motesanib + Palbociclib (first compound 0.1 µM); 0.273 with Motesanib + Palbociclib (first compound 0.3162 µM); 0.32 with Motesanib + Palbociclib (first compound 1 µM); 0.242 in assay [1] (first compound 0.04 µM). Moreover, the relative viability in assay [1] (first compound 0.1265 µM) is 0.308; in assay [1] (first compound 0.4 µM) it was 0.197; in assay [1] (first compound 1.265 µM), 0.173; in assay [2] (first compound 0.04 µM) it was 0.518; in assay [2] (first compound 0.1265 µM), 0.463; in assay [2] (first compound 0.4 µM), 0.31. The relative viability is 0.335 in assay [2] (first compound 1.265 µM); 0.315 in assay [3] (first compound 0.04 µM); 0.367 in assay [3] (first compound 0.1265 µM); 0.234 in assay [3] (first compound 0.4 µM); 0.188 in assay [3] (first compound 1.265 µM).

COR-L 105: the relative viability worked out at 0.393 with Motesanib + Palbociclib (first compound 0.01 µM); 0.45 with Motesanib + Palbociclib (first compound 0.03162 µM); 0.401 with Motesanib + Palbociclib (first compound 0.1 µM); 0.438 with Motesanib + Palbociclib (first compound 0.3162 µM); 0.448 with Motesanib + Palbociclib (first compound 1 µM); 0.416 in assay [1] (first compound 0.04 µM). Moreover, the relative viability in assay [1] (first compound 0.1265 µM) turned out to be 0.422; in assay [1] (first compound 0.4 µM), 0.435; in assay [1] (first compound 1.265 µM), 0.438; in assay [2] (first compound 0.04 µM) it was 0.414; in assay [2] (first compound 0.1265 µM), 0.328; in assay [2] (first compound 0.4 µM), 0.26. Also, the relative viability in assay [2] (first compound 1.265 µM) was 0.241; in assay [3] (first compound 0.04 µM), 0.74; in assay [3] (first compound 0.1265 µM) it was 0.604; in assay [3] (first compound 0.4 µM), 0.571; in assay [3] (first compound 1.265 µM), 0.595.

With Calu-6, the relative viability was 0.965 in assay [2] (first compound 0.04 µM); 0.833 in assay [2] (first compound 0.1265 µM); 0.695 in assay [2] (first compound 0.4 µM); 0.425 in assay [2] (first compound 1.265 µM); 0.612 in assay [3] (first compound 0.04 µM); 0.644 in assay [3] (first compound 0.1265 µM). For the same cell line, the relative viability in assay [3] (first compound 0.4 µM) is 0.543; in assay [3] (first compound 1.265 µM), 0.384.

(Values after the supplement of paper PMC10307832.)
